The record followed here is ChEMBL document CHEMBL6087476, “Positive Charge-Concentrated Dimeric Lipopeptides with Enhanced Protease Resistance: A Potential Solution for Systemic Bacterial Infections” (J Med Chem, 2025).

≈ marks a conversion by molar mass, not a printed value.

Format in all cases: functional
Holding throughout (settings): time 20-22 hrs

In one test the test system is Pseudomonas aeruginosa. Nature of the test: Antimicrobial activity against Pseudomonas aeruginosa 25349 assessed as increase in absorbance incubated for 20 to 22 hrs.
Test [1] has as its system Acinetobacter baumannii. Kind of test: Antimicrobial activity against Acinetobacter baumannii AB1902 assessed as increase in absorbance incubated for 20 to 22 hrs.
The test system of another test is Staphylococcus aureus. Nature of the test: Antimicrobial activity against Staphylococcus aureus 11011 assessed as increase in absorbance incubated for 20 to 22 hrs.
Test [2] deals with Acinetobacter baumannii. Kind of test: Antimicrobial activity against Acinetobacter baumannii AB1901 assessed as increase in absorbance incubated for 20 to 22 hrs.

With `CC(C)(O/N=C(\C(=O)N[C@@H]1C(=O)N2C(C(=O)[O-])=C(C[n+]3ccccc3)CS[C@H]12)c1csc(N)n1)C(=O)O` [CEFTAZIDIME], the MIC in the test on Pseudomonas aeruginosa is 0.5 µM (≈ 0.273 µg/mL); in the test with Acinetobacter baumannii [1], above 64 µM; in the test with Staphylococcus aureus, above 64 µM; with Acinetobacter baumannii [2], 0.5 µM (≈ 0.273 µg/mL).
As to `O=C(O)c1cn(C2CC2)c2cc(N3CCNCC3)c(F)cc2c1=O` [CIPROFLOXACIN], the minimal inhibitory concentration (MIC) was 0.25 µM (≈ 0.0828 µg/mL) with Pseudomonas aeruginosa, above 64 µM in the test with Acinetobacter baumannii [1], above 64 µM with Staphylococcus aureus and 0.25 µM (≈ 0.0828 µg/mL) in the test with Acinetobacter baumannii [2].
Take `CC1(C)S[C@@H]2[C@H](NC(=O)Cc3ccccc3)C(=O)N2[C@H]1C(=O)O` [PENICILLIN G SODIUM]: the minimal inhibitory concentration (MIC) with Pseudomonas aeruginosa is above 64 µM; in the test with Acinetobacter baumannii [1], above 64 µM; in the test with Staphylococcus aureus, above 64 µM; with Acinetobacter baumannii [2], 64 µM.
For `CN[C@H](CC(C)C)C(=O)N[C@H]1C(=O)N[C@@H](CC(N)=O)C(=O)N[C@H]2C(=O)N[C@H]3C(=O)N[C@H](C(=O)N[C@H](C(=O)O)c4cc(O)cc(O)c4-c4cc3ccc4O)[C@H](O)c3ccc(c(Cl)c3)Oc3cc2cc(c3O[C@@H]2O[C@H](CO)[C@@H](O)[C@H](O)[C@H]2O[C@H]2C[C@](C)(N)[C@H](O)[C@H](C)O2)Oc2ccc(cc2Cl)[C@H]1O` [VANCOMYCIN], the minimal inhibitory concentration (MIC) in the test with Pseudomonas aeruginosa was above 64 µM; in the test with Acinetobacter baumannii [1], above 64 µM; in the test on Staphylococcus aureus, above 64 µM; in the test on Acinetobacter baumannii [2], 32 µM (≈ 46.4 µg/mL).
Consider `CC[C@H]1OC(=O)[C@H](C)[C@@H](O[C@H]2C[C@@](C)(OC)[C@@H](O)[C@H](C)O2)[C@H](C)[C@@H](O[C@@H]2O[C@H](C)C[C@H](N(C)C)[C@H]2O)[C@](C)(O)C[C@@H](C)C(=O)[C@H](C)[C@@H](O)[C@]1(C)O` [ERYTHROMYCIN], for which the MIC is 64 µM (≈ 47 µg/mL) in the test with Pseudomonas aeruginosa, above 64 µM with Acinetobacter baumannii [1], above 64 µM in the test with Staphylococcus aureus and 64 µM (≈ 47 µg/mL) in the test with Acinetobacter baumannii [2].
